Assay results taken from US11134889B2, “Treatment of a disease of the gastrointestinal tract with a SMAD7 inhibitor” (Progenity, Inc., priority 2016, dated 2021).

Assay: Tacrolimus tissue pharmacokinetics, oral vs intra-cecal ingestible device delivery
Assay type: in vivo, Yorkshire-Cross farm swine
Settings: swine; intra-cecal as compared to oral administration, 12 hours post-dose
Procedure: The primary objective of this study was to compare the tissue, plasma, rectal sample, and GI content pharmacokinetics of tacrolimus through oral versus intra-cecal ingestible device delivery in normal Yorkshire-Cross farm swine.
No further randomization procedure was employed.
Animals in Group 1 received an ingestible device containing 0.8 mL of vehicle solution (80% alcohol, 20% HCO-60). Animals in Group 2 received orally […] liquid formulation of tacrolimus at 4 mg/0.8 mL per animal (Prograf: 5 mg/mL). Animals in Group 3 received intra-cecally an ingestible device containing tacrolimus at 1 mg in 0.8 mL per ingestible device. […]
Approximately 200˜400 mg of rectal content were collected, if available, with a fecal swab (Copan Diagnostics Nylon Flocked Dry Swabs, 502CS01). The fecal swab was pre-weighed and weighed after collection in the collection tube (Sterile Tube and Cap No Media, PFPM913S), and the sample weight was recorded. […]
For tissue necropsy, small intestine fluid and cecal fluid were collected separately from all the animals into two separate square plastic bottles, and stored at −20° C. The length and diameter of the cecum and the colon was measured from one animal in each group and recorded for reference. […] All samples were weighed, and the tissue sample weights were recorded. […]

mean concentration in the cecum tissue and the proximate colon tissue (FIG. 76): higher
Compound: C=CC[C@@H]1/C=C(\C)C[C@H](C)C[C@H](OC)[C@H]2O[C@@](O)(C(=O)C(=O)N3CCCC[C@H]3C(=O)O[C@H](/C(C)=C/[C@@H]3CC[C@@H](O)[C@H](OC)C3)[C@H](C)[C@@H](O)CC1=O)[C@H](C)C[C@@H]2OC [tacrolimus]
